Source: patent EP4678638A1, “NEW E3 UBIQUITIN LIGASE LIGAND, PROTEIN DEGRADATION AGENT AND USE THEREOF” (priority 2023, dated 2024)
Read-outs that look alike come from different tables or passages of the source.

Key:
[1] = target: T1, human Cereblon WT GST-tagged protein (Homo sapiens, UniProt Q96SW2); experiment: CRBN binding, HTRF (CEREBLON BINDING kit); conditions: for inhibition at 0.5 µM: read-out: Inhibition rate (%) at 0.5µM; for inhibition at 2 µM: read-out: Inhibition rate (%) at 2 µM
T1 construct: purchased CISBIO 64BDCRBNPEH
T1 sequence (Q96SW2 whole entry): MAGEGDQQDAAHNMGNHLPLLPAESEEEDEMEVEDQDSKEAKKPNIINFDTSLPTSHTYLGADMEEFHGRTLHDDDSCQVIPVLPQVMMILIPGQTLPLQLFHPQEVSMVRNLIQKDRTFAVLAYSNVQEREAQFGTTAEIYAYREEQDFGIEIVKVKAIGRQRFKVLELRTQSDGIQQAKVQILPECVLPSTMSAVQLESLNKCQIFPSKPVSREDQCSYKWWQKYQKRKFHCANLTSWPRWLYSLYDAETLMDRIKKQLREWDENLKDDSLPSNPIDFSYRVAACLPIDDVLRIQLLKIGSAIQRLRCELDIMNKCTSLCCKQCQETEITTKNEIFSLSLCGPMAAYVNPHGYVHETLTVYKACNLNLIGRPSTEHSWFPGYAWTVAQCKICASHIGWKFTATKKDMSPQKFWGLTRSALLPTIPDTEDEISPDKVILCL
Procedure, shortened: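 After 3 h at room temperature, emission at 665 and 620 nm was measured in a homogeneous time-resolved fluorescence format. Compounds competed with a Thalidomide-Re probe for GST-tagged wild-type human CRBN, which was labelled with a Eu anti-GST antibody.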

[2] = tested on: SU-DHL-6; experiment: CCK-8 proliferation, SU-DHL-6; assay type: cell-based; conditions: Homo sapiens, read-out: Inhibitory activity (IC50) on tumor cell proliferation, SU-DHL-6
Description: (§1) The tumor cells used herein were cultured in a cell culture medium listed in table A1 at 37°C in an incubator with 5% CO2. Prior to experimentation, all cell lines used were correctly identified by STR profiling, and tested negative for mycoplasma contamination using a mycoplasma detection kit through routine screenings. Table A1. Tumor cells and cell culture medium used in the present disclosure
(§2) IC50 values of the compounds of the present disclosure (including the compounds in Table 1, and compounds of examples) were measured using the Meilun Cell Counting Kit-8 kit from Dalian Meilun Biotech Co., Ltd. Assay details are as follows: tumor cells were seeded in a 96-well plate at a density listed in Table A2. After 24h, 100 µL of the inoculated cells were treated with 0.5µL of the compounds of the present disclosure (including the compounds in Tables 1 and 2, and compounds of examples) at 10 different successively decreasing concentrations (starting at the highest concentration of 10µM; 5-fold serial dilutions). After the cells were treated with the compounds of the present disclosure for a period of time, the cell viability detection reagent was added to the culture medium for cell viability assessment according to the instructions provided with the CCK-8 kit. […] The growth inhibition of the compounds of the present disclosure on cells was plotted by Prism Graphpad software, and the IC50 values of the compounds of the present disclosure were calculated therefrom. […] Seeding protocol and treatment time for tumor cells

[3] = tested on: TMD8; experiment: CCK-8 proliferation, TMD8; assay type: cell-based; conditions: Homo sapiens, read-out: Inhibitory activity (IC50) on tumor cell proliferation, TMD8
Description: as §1, §2

[4] = tested on: BXPC-3; experiment: CCK-8 proliferation, BXPC-3; assay type: cell-based; conditions: Homo sapiens, 96 hours, read-out: Inhibitory activity (IC50) on tumor cell proliferation, BXPC-3
Description: as §1, §2

[5] = tested on: MGC-803; experiment: CCK-8 proliferation, MGC-803 (heads: MGC80-3, MGC803); assay type: cell-based, Human; conditions: Homo sapiens, MGC-803; CCK-8; 72 hours; read-out: Inhibitory activity (IC50) on tumor cell proliferation, MGC80-3
Procedure, shortened: (§3)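 CCK-8 viability readout; IC50 from growth-inhibition curve fitting. Cells plated, dosed 24h later with a 10-point series, top 10µM, 5-fold steps. Culture at 37°C, 5% CO2.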

[6] = tested on: THP-1; experiment: CCK-8 proliferation, THP-1; assay type: cell-based; conditions: Homo sapiens, 72 hours, read-out: Inhibitory activity (IC50) on tumor cell proliferation, THP-1
Description: as §1, §2

[7] = tested on: H520; experiment: CCK-8 proliferation, H520; assay type: cell-based; conditions: Homo sapiens, NCI-H520, 96 hours, read-out: Inhibitory activity (IC50) on tumor cell proliferation, H520
Description: as §1, §2

[8] = tested on: H2228; experiment: CCK-8 proliferation, NCI-H2228 (H2228); assay type: cell-based; conditions: Homo sapiens, NCI-H2228, 96 h, read-out: Inhibitory activity (IC50) on tumor cell proliferation, H2228
Procedure, shortened: as §3

[9] = tested on: MM.1R; experiment: CCK-8 proliferation, MM.1R; assay type: cell-based; conditions: 72 h, read-out: Inhibitory activity (IC50) on tumor cell proliferation, MM.1R
Procedure, shortened: as §3

[10] = tested on: PC-9; experiment: CCK-8 proliferation, PC-9; assay type: cell-based, Human; conditions: Homo sapiens, PC-9, 96 h, read-out: Inhibitory activity (IC50) on tumor cell proliferation, PC-9
Procedure, shortened: as §3

[11] = tested on: SW620; experiment: CCK-8 proliferation, SW620; assay type: cell-based; conditions: Homo sapiens, read-out: Inhibitory activity (IC50) on tumor cell proliferation, SW620
Procedure, shortened: as §3

[12] = tested on: H1975; experiment: CCK-8 proliferation, NCI-H1975 (H1975); assay type: cell-based, Human; conditions: Homo sapiens, NCI-H1975, 96 h, read-out: Inhibitory activity (IC50) on tumor cell proliferation, H1975
Procedure, shortened: as §3

[13] = tested on: LNcap; experiment: CCK-8 proliferation, LNcap; assay type: cell-based; conditions: Homo sapiens, LNCaP; CCK-8; 96 hours; read-out: Inhibitory activity (IC50) on tumor cell proliferation, Lncap
Procedure, shortened: as §3

[14] = tested on: Jurkat; experiment: CCK-8 proliferation, Jurkat; assay type: cell-based, Human; conditions: Homo sapiens, Jurkat; CCK-8; 96 hours; read-out: Inhibitory activity (IC50) on tumor cell proliferation, Jurkat
Procedure, shortened: as §3

[15] = tested on: CCRF-CEM; experiment: CCK-8 proliferation, CCRF-CEM; assay type: cell-based, Human; conditions: Homo sapiens, CCRF-CEM; CCK-8; 96 hours; read-out: Inhibitory activity (IC50) on tumor cell proliferation, CCRF-CEM
Procedure, shortened: as §3

[16] = tested on: LS174T; experiment: CCK-8 proliferation, LS174T; assay type: cell-based; conditions: Homo sapiens, read-out: Inhibitory activity (IC50) on tumor cell proliferation, LS174T
Description: IC50 values of the compounds of the present disclosure (including the compounds in Table 1, and compounds of examples) were measured using the Meilun Cell Counting Kit-8 kit from Dalian Meilun Biotech Co., Ltd. Assay details are as follows: tumor cells were seeded in a 96-well plate at a density listed in Table A2. After 24h, 100 µL of the inoculated cells were treated with 0.5µL of the compounds of the present disclosure (including the compounds in Tables 1 and 2, and compounds of examples) at 10 different successively decreasing concentrations (starting at the highest concentration of 10µM; 5-fold serial dilutions). After the cells were treated with the compounds of the present disclosure for a period of time, the cell viability detection reagent was added to the culture medium for cell viability assessment according to the instructions provided with the CCK-8 kit. […] The growth inhibition of the compounds of the present disclosure on cells was plotted by Prism Graphpad software, and the IC50 values of the compounds of the present disclosure were calculated therefrom. [drawing 1519] Table A2. Seeding protocol and treatment time for tumor cells

Nc1ncnc2c1c(-c1ccc(Oc3ccccc3)cc1)nn2C1CCN(Cc2ccc(C3CCC(=O)NC3=O)c(F)c2)CC1 (stereo not drawn) [GT-03508, 3-(4-((4-(4-amino-3-(4-phenoxyphenyl)-1H-pyrazolo[3,4-d]pyrimidin-1-yl)piperidin-1-yl)methyl)-2-fluorophenyl)piperidine-2,6-dione]
inhibition at 0.5 µM ([1]; Table II-2, CRBN binding screening, HTRF, at 0.5µM): 30 to 40% | inhibition at 2 µM ([1]; Table II-2, CRBN binding screening, HTRF, at 2 µM): 60 to 80% | IC50 ([2]; SU-DHL-6, CCK-8, 72 hours): 500 to 1000 nM | IC50 ([3]; TMD8, CCK-8, 72 hours): 100 to 500 nM

Cc1ccc(-c2c(C)noc2C)cc1N(CC1CCN(Cc2ccc(N3CCC(=O)NC3=O)cc2F)CC1)c1ccc(C2(C#N)CC2)cc1 [GT-04973, 1-(4-((5-(3,5-dimethylisoxazol-4-yl)-2-methylphenyl)((1-(4-(2,4-dioxotetrahydropyrimidin-1(2H)-yl)-2-fluorobenzyl)piperidin-4-yl)methyl)amino)phenyl)cyclopropane-1-carbonitrile]
IC50 [4]: 100 to 500 nM | IC50 [5]: 500 to 1000 nM | IC50 [6]: 500 to 1000 nM | IC50 [7]: 500 to 1000 nM

C=CC(=O)N1CCC[C@@H](n2nc(-c3ccc(Oc4ccccc4)cc3)c3c(N)ncnc32)C1 [ibrutinib, Ibrutinib, reference compound]
IC50 [8]: > 10000 nM | IC50 [9]: > 10000 nM | IC50 [10]: 100 to 500 nM | IC50 ([2]; SU-DHL-6, 72 h): 100 to 500 nM | IC50 ([11]; SW-620, 96 h): > 10000 nM | IC50 [12]: 500 to 1000 nM | IC50 ([3]; TMD8, 72 h): > 10000 nM

Nc1ncnc2c1c(-c1ccc(Oc3ccccc3)cc1)nn2[C@H]1CCN(Cc2ccc(C3CCC(=O)NC3=O)c(F)c2)C[C@H]1F (stereo partly drawn) [GT-03513, 3-(4-(((3R,4S)-4-(4-amino-3-(4-phenoxyphenyl)-1H-pyrazolo[3,4-d]pyrimidin-1-yl)-3-fluoropiperidin-1-yl)methyl)-2-fluorophenyl)piperidine-2,6-dione]
IC50 ([2]; SU-DHL-6, CCK-8, 72 hours): 100 to 500 nM | IC50 ([3]; TMD8, CCK-8, 72 hours): 100 to 500 nM

Nc1ncnc2c1c(-c1ccc(Oc3ccccc3)cc1)nn2[C@H]1CCN(Cc2ccc(C3CCC(=O)NC3=O)cc2)C[C@H]1F (stereo partly drawn) [GT-03542, 3-(4-(((3R,4S)-4-(4-amino-3-(4-phenoxyphenyl)-1H-pyrazolo[3,4-d]pyrimidin-1-yl)-3-fluoropiperidin-1-yl)methyl)phenyl)piperidine-2,6-dione]
inhibition at 0.5 µM [1]: 20 to 30% | inhibition at 2 µM [1]: 80 to 100% | IC50 ([2]; SU-DHL-6, CCK-8, 72 hours): 100 to 500 nM | IC50 ([3]; TMD8, CCK-8, 72 hours): 100 to 500 nM

Cc1ccc(-c2c(C)noc2C)cc1N(CC1CCN(Cc2ccc(N3CCC(=O)NC3=O)cc2)CC1)c1ccc(C2(C#N)CC2)cc1 [GT-04844, 1-(4-((5-(3,5-dimethylisoxazol-4-yl)-2-methylphenyl)((1-(4-(2,4-dioxotetrahydropyrimidin-1(2H)-yl)benzyl)piperidin-4-yl)methyl)amino)phenyl)cyclopropane-1-carbonitrile]
IC50 [4]: 100 to 500 nM | IC50 [5]: 100 to 500 nM | IC50 [6]: 500 to 1000 nM | IC50 [7]: 500 to 1000 nM

CC1(C)CCC(c2ccc(Cl)cc2)=C(CN2CCN(c3ccc(C(=O)NS(=O)(=O)c4ccc(N[C@H](CCN5CCN(Cc6ccc(C7CCC(=O)NC7=O)c(F)c6)CC5)CSc5ccccc5)c(S(=O)(=O)C(F)(F)F)c4)cc3)CC2)C1 (stereo partly drawn) [GT-04152, 4-(4-((4'-chloro-4,4-dimethyl-3,4,5,6-tetrahydro-[1,1'-biphenyl]-2-yl)methyl)piperazin-1-yl)-N-((4-(((2R)-4-(4-(4-(2,6-dioxopiperidin-3-yl)-3-fluorobenzyl)piperazin-1-yl)-1-(phenylthio)butan-2-yl)amino)-3-((trifluoromethyl)sulfonyl)phenyl)sulfonyl)benzamide]
IC50 [13]: 50 to 100 nM | IC50 [6]: 10 to 50 nM | IC50 [14]: 1 to 10 nM | IC50 [15]: 1 to 10 nM | IC50 ([11]; SW-620, CCK-8, 96 hours): 1 to 10 nM | IC50 [16]: 50 to 100 nM | IC50 ([3]; TMD8, CCK-8, 72 hours): 1 to 10 nM

CC1(C)CCC(c2ccc(Cl)cc2)=C(CN2CCN(c3ccc(C(=O)NS(=O)(=O)c4ccc(N[C@H](CCN5CCN(Cc6ccc(C7CCC(=O)NC7=O)cc6)CC5)CSc5ccccc5)c(S(=O)(=O)C(F)(F)F)c4)cc3)CC2)C1 (stereo partly drawn) [GT-04151, 4-(4-((4'-chloro-4,4-dimethyl-3,4,5,6-tetrahydro-[1,1'-biphenyl]-2-yl)methyl)piperazin-1-yl)-N-((4-(((2R)-4-(4-(4-(2,6-dioxopiperidin-3-yl)benzyl)piperazin-1-yl)-1-(phenylthio)butan-2-yl)amino)-3-((trifluoromethyl)sulfonyl)phenyl)sulfonyl)benzamide]
IC50 [13]: 10 to 50 nM | IC50 [6]: 1 to 10 nM | IC50 [14]: 1 to 10 nM | IC50 [15]: < 1 nM | IC50 ([11]; SW-620, CCK-8, 96 hours): 10 to 50 nM | IC50 [16]: 50 to 100 nM | IC50 ([3]; TMD8, CCK-8, 72 hours): 1 to 10 nM

Cc1ccc(-c2c(C)noc2C)cc1N(CC1CCN(Cc2ccc(N3CCC(=O)NC3=O)c(F)c2)CC1)c1ccc(C2(C#N)CC2)cc1 [GT-04843, 1-(4-((5-(3,5-dimethylisoxazol-4-yl)-2-methylphenyl)((1-(4-(2,4-dioxotetrahydropyrimidin-1(2H)-yl)-3-fluorobenzyl)piperidin-4-yl)methyl)amino)phenyl)cyclopropane-1-carbonitrile]
IC50 [4]: 100 to 500 nM | IC50 [5]: 100 to 500 nM | IC50 [6]: 500 to 1000 nM | IC50 [7]: 500 to 1000 nM

CC1(C)CCC(CN2CCN(c3ccc(C(=O)NS(=O)(=O)c4ccc(NCC5CCOCC5)c([N+](=O)[O-])c4)c(Oc4cnc5[nH]ccc5c4)c3)CC2)=C(c2ccc(Cl)cc2)C1 [ABT-199, Venetoclax, reference compound]
IC50 [13]: > 10000 nM | IC50 [6]: 500 to 1000 nM | IC50 [14]: 1000 to 5000 nM | IC50 [15]: 1000 to 5000 nM | IC50 ([11]; SW-620, CCK-8, 96 hours): > 10000 nM | IC50 [16]: > 10000 nM | IC50 ([3]; TMD8, CCK-8, 72 hours): 1000 to 5000 nM

Nc1ncnc2c1c(-c1ccc(Oc3ccccc3)cc1)nn2C1CCN(Cc2ccc(C3CCC(=O)NC3=O)cc2)CC1 (stereo not drawn) [GT-03507, 3-(4-((4-(4-amino-3-(4-phenoxyphenyl)-1H-pyrazolo[3,4-d]pyrimidin-1-yl)piperidin-1-yl)methyl)phenyl)piperidine-2,6-dione]
inhibition at 0.5 µM [1]: 30 to 40% | inhibition at 2 µM [1]: 80 to 100% | IC50 ([2]; SU-DHL-6, CCK-8, 72 hours): 500 to 1000 nM | IC50 ([3]; TMD8, CCK-8, 72 hours): 100 to 500 nM
